Results: ChEMBL document CHEMBL6121066, “Structure-Activity Relationship Studies of DNA Methyltransferase 1 Monovalent Degraders” (J Med Chem, 2025)

test system: not listed separately; assay: Induction of molecular glue effect mediated DNMT1 degradation in human HCT-116 cells assessed as reduction in DNMT1 protein level incubated for 24 hrs by Western blot analysis; format: cell-based; details: HCT-116, 24 h

SMILES	DC50
CCc1c(C#N)c(SC(C(N)=O)c2ccccc2)nc(N2CCN(C(=O)CC(C)C)CC2)c1C#N (stereo not given)	65 nM
CCc1c(C#N)c(SC(C(N)=O)c2ccccc2)nc(N2CCN(C)CC2)c1C#N (stereo not given)	> 1000 nM
CCc1c(C#N)c(SC(C(N)=O)c2ccccc2)nc(N2CCN(C)C(=O)C2)c1C#N (stereo not given)	190 nM
CCc1c(C#N)c(SC(C(N)=O)c2ccccc2)nc(N(C)CCNC(C)=O)c1C#N (stereo not given)	753 nM
CCc1c(C#N)c(SC(C(N)=O)c2ccccc2)nc(N2CCC(N(C)C)CC2)c1C#N (stereo not given)	35 nM
CCc1c(C#N)c(SC(C(N)=O)c2ccccc2)nc(N2CCN(C(=O)c3cc4ccccc4s3)CC2)c1C#N (stereo not given)	714 nM
CCc1c(C#N)c(SC(C(N)=O)c2ccccc2)nc(N2CCN(C(=O)c3ccco3)CC2)c1C#N (stereo not given)	42 nM

Now from value to compound:

DC50	SMILES
409 nM	CCc1c(C#N)c(SC(C(N)=O)c2ccccc2)nc(N2CCN(C(=O)C34CC5CC(CC(C5)C3)C4)CC2)c1C#N (stereo not given)
175 nM	CCc1c(C#N)c(SC(C(N)=O)c2ccccc2)nc(N2CCN(C(=O)C3CCCCCC3)CC2)c1C#N (stereo not given)
63 nM	CCc1c(C#N)c(SC(C(N)=O)c2ccccc2)nc(N2CCN(C(=O)C(C)(C)C)CC2)c1C#N (stereo not given)
51 nM	CCC(=O)N1CCN(c2nc(SC(C(N)=O)c3ccccc3)c(C#N)c(CC)c2C#N)CC1 (stereo not given)
39 nM	CCc1c(C#N)c(SC(C(N)=O)c2ccccc2)nc(N2CCC(NC(=O)C(C)(C)C)CC2)c1C#N (stereo not given)
820 nM	CCc1c(C#N)c(SC(C(N)=O)c2ccccc2)nc(N2CCN(C(=O)C3CNC3)CC2)c1C#N (stereo not given)
946 nM	CCc1c(C#N)c(SC(C(N)=O)c2ccccc2)nc(N2CC3(CN(C(=O)C(C)(C)C)C3)C2)c1C#N (stereo not given)
99 nM	CCc1c(C#N)c(SC(C(N)=O)c2ccccc2)nc(N(C)CC(N)=O)c1C#N (stereo not given)
563 nM	CCc1c(C#N)c(SC(C(N)=O)c2ccccc2)nc(N2CCN(C(=O)c3ccc(Br)cc3)CC2)c1C#N (stereo not given)
144 nM	CCc1c(C#N)c(SC(C(N)=O)c2ccccc2)nc(N2CCN(C(=O)c3cc[nH]n3)CC2)c1C#N (stereo not given)

test system: HCT-116; assay: Induction of molecular glue effect mediated DNMT1 degradation in human HCT-116 cells assessed as reduction in DNMT1 protein level by measuring maximal efficacy at 1 uM incubated for 24 hrs by Western blot analysis relative to control; format: cell-based; details: not given

SMILES	Emax
CCc1c(C#N)c(S[C@@H](C(N)=O)c2ccccc2)nc(N(C)C)c1C#N	89%
CCc1c(C#N)c(SC(C(N)=O)c2ccccc2)nc(N2CCN(C(=O)C34CC5CC(CC(C5)C3)C4)CC2)c1C#N (stereo not given)	80%
CCc1c(C#N)c(SC(C(N)=O)c2ccccc2)nc(N2CCN(C(=O)CC(C)C)CC2)c1C#N (stereo not given)	93%
CCc1c(C#N)c(SC(C(N)=O)c2ccccc2)nc(N2CCN(C)CC2)c1C#N (stereo not given)	46%
CCc1c(C#N)c(SC(C(N)=O)c2ccccc2)nc(N2CCN(C(=O)C3CCCCCC3)CC2)c1C#N (stereo not given)	87%
CCc1c(C#N)c(SC(C(N)=O)c2ccccc2)nc(N2CCN(C)C(=O)C2)c1C#N (stereo not given)	87%
CCc1c(C#N)c(SC(C(N)=O)c2ccccc2)nc(N2CCN(C(=O)C(C)(C)C)CC2)c1C#N (stereo not given)	88%
CCC(=O)N1CCN(c2nc(SC(C(N)=O)c3ccccc3)c(C#N)c(CC)c2C#N)CC1 (stereo not given)	89%
CCc1c(C#N)c(SC(C(N)=O)c2ccccc2)nc(N2CCC(NC(=O)C(C)(C)C)CC2)c1C#N (stereo not given)	90%
CCc1c(C#N)c(SC(C(N)=O)c2ccccc2)nc(N(C)CCNC(C)=O)c1C#N (stereo not given)	56%
CCc1c(C#N)c(SC(C(N)=O)c2ccccc2)nc(N2CCN(C(=O)C3CNC3)CC2)c1C#N (stereo not given)	56%
CCc1c(C#N)c(SC(C(N)=O)c2ccccc2)nc(N2CC3(CN(C(=O)C(C)(C)C)C3)C2)c1C#N (stereo not given)	43%
CCc1c(C#N)c(SC(C(N)=O)c2ccccc2)nc(N(C)CC(N)=O)c1C#N (stereo not given)	88%
CCc1c(C#N)c(SC(C(N)=O)c2ccccc2)nc(N2CCC(N(C)C)CC2)c1C#N (stereo not given)	92%
CCc1c(C#N)c(SC(C(N)=O)c2ccccc2)nc(N2CCN(C(=O)c3ccc(Br)cc3)CC2)c1C#N (stereo not given)	79%
CCc1c(C#N)c(SC(C(N)=O)c2ccccc2)nc(N2CCN(C(=O)c3cc4ccccc4s3)CC2)c1C#N (stereo not given)	74%
CCc1c(C#N)c(SC(C(N)=O)c2ccccc2)nc(N2CCN(C(=O)c3cc[nH]n3)CC2)c1C#N (stereo not given)	89%
CCc1c(C#N)c(SC(C(N)=O)c2ccccc2)nc(N2CCN(C(=O)c3ccco3)CC2)c1C#N (stereo not given)	94%
